From patent EP0877740B1, “THIOL DERIVATIVES WITH METALLOPEPTIDASE INHIBITORY ACTIVITY” (ZAMBON GROUP S.p.A., priority 1995, dated 1997)
Where two headings read alike, the source gives them in different places.

Assays:
NEP = biological target: T1, NEP (Rattus norvegicus, UniProt P07861); assay: Ex vivo NEP-inhibitory activity in kidney homogenates of treated SHR (GAAP substrate); parameters: After the removal of the kidneys from SHR, the renal tissue was homogenized; from tissue; host or cells: kidney homogenate of spontaneously hypertensive rats (SHR); species or system spontaneously hypertensive rats (SHR); conditions: oral 30 µmoles/kg; for inhibition at 30 µmol/kg: rat, SHR kidneys
T1 sequence (P07861 1-750): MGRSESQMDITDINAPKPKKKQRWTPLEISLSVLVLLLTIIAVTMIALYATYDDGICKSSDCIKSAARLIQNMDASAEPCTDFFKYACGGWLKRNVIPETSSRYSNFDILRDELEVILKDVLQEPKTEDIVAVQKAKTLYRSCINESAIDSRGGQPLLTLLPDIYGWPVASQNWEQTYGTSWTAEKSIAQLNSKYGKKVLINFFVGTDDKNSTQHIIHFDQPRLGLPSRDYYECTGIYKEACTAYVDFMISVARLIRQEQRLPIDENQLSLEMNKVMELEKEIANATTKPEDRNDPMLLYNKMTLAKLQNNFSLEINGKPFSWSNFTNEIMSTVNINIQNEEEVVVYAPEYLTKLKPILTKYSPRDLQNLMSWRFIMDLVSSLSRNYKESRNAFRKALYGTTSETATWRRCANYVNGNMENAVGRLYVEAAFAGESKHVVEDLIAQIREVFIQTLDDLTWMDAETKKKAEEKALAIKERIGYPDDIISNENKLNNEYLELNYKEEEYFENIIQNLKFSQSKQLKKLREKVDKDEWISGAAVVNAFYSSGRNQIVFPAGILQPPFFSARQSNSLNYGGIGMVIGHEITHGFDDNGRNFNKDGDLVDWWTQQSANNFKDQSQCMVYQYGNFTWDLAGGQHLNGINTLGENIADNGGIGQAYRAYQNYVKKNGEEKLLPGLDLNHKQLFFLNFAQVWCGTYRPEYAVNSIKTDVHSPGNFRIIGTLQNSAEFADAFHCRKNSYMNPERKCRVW
Description: (§1) The ex-vivo ACE/NEP-inhibitory activity, in particular, was determined by evaluating the enzymatic activity in tissue homogenates (lung and kidney for ACE and NEP activity, respectively) from spontaneously hypertensive rats (SHR) treated with the tested compounds by intravenous or oral route.
The ex vivo NEP-inhibitory activity was evaluated according to the procedure reported in the literature by M. Orlowsky et al., in Biochemistry 1981, 20, 4942-4950.
The inhibitory activity of the compounds of formula I was evaluated in kidneys of spontaneously hypertensive rats (SHR), 5 minutes after i.v. injection (0.6 and 21 µmoles/kg) and 30 minutes, 60 minutes and 4 hours after oral administration (30 µmoles/kg) of the tested compounds.
After the removal of the kidneys from SHR, the renal tissue was homogenized and incubated for 15 minutes at 37°C in the presence of Glutaryl-Ala-Ala-Phe-2-naphthylamide (GAAP), as a substrate, and aminopeptidase M at pH 7.6.
The reaction was stopped by adding an aqueous solution at 10% of trichloroacetic acid.
The released 2-naphthylamine was determined by adding fast garnet dye (2 ml).
Enzyme reaction rates were determined by measuring the increase in the optical density at 524 nm (OD524) with respect to a standard obtained with 2-naphthylamine complexed with fast garnet.
The NEP-inhibitory activity of the tested compounds was expressed as percentage of NEP-inhibition in SHR kidneys.

ACE = biological target: T2, ACE (Rattus norvegicus, UniProt P47820); assay: Ex vivo ACE-inhibitory activity in lung homogenates of treated SHR (radiometric, [3H]Hyp-Gly-Gly); parameters: species or system spontaneously hypertensive rats (SHR); conditions: SHR lungs, oral 30 µmoles/kg
T2 construct: After the removal of the lungs from SHR, the lung tissue was homogenized; from tissue; host or cells: lung homogenate of spontaneously hypertensive rats (SHR)
T2 sequence (P47820 36-1313): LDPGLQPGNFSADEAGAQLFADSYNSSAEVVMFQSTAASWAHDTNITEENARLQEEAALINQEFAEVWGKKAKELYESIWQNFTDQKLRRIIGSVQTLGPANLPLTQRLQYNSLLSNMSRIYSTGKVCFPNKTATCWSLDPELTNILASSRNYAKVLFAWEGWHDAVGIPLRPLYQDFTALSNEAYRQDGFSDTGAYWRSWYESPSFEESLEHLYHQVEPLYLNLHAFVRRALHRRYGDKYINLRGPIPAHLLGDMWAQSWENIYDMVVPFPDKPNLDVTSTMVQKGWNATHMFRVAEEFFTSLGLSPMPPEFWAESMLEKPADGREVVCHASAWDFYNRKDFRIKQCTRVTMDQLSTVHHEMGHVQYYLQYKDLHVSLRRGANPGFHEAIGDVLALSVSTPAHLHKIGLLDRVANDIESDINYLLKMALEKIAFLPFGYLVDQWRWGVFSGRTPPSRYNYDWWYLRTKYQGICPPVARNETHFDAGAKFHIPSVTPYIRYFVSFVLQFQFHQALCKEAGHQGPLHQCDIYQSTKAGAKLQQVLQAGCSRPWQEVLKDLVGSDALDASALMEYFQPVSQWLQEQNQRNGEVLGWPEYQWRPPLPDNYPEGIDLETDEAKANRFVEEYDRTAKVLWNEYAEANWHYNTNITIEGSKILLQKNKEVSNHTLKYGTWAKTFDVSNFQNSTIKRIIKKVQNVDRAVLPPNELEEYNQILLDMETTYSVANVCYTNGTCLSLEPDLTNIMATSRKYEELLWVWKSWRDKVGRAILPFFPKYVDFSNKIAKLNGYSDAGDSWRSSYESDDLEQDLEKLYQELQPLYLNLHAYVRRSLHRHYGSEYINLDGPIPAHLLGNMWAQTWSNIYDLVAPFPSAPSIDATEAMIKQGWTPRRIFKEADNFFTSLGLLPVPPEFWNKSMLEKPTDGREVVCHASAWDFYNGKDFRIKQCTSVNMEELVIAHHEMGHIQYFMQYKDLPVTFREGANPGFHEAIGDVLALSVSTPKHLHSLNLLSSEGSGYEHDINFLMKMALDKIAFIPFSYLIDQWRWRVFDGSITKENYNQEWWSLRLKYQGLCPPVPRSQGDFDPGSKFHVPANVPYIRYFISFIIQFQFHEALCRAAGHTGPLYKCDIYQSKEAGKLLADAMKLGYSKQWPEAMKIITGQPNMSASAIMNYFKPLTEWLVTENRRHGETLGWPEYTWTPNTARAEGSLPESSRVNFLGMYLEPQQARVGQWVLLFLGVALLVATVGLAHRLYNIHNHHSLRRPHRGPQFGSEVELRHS
Description: as §1
The ex vivo ACE-inhibitory activity was evaluated by using a radiometric assay method, as reported in the literature by J. W. Ryan et al. in Biochem. J. (1977), 167, 501-504.
The inhibitory activity of the compounds of formula I was evaluated in lungs of spontaneously hypertensive rats (SHR), 5 minutes after i.v. injection (0.6 and 21 µmoles/kg) and 30 minutes, 60 minutes and 4 hours after oral administration (30 µmoles/kg) of the tested compounds.
After the removal of the lungs from SHR, the lung tissue was homogenized and incubated for 2 hours at 37°C in the presence of [^3H]Hyp-Gly-Gly, as a substrate.
The reaction was stopped by adding hydrochloric acid.
The released radiolabelled hyppuric acid was extracted with ethyl acetate and counted by liquid scintillation spectrometry, according to conventional methods.
The ACE-inhibitory activity of the tested compounds was expressed as percentage of ACE-inhibition in SHR lungs.

[1] = 30 minutes after administration, read-out: NEP-inhibition (kidneys) 30 minutes
[2] = 30 minutes after administration, read-out: ACE-inhibition (lungs) 30 minutes
[3] = 4 hours after administration, read-out: ACE-inhibition (lungs) 4 hours

Row | inhibition at 30 µmol/kg (NEP; [1]) | inhibition at 30 µmol/kg (NEP; 4 hours after administration, read-out: NEP-inhibition (kidneys) 4 hours) | inhibition at 30 µmol/kg (ACE; [2]) | inhibition at 30 µmol/kg (ACE; [3]) | NEP-inhibition (kidneys) 4 hours (NEP; 4 hours after administration) | NEP-inhibition (kidneys) 30 minutes (NEP; 30 minutes after administration) | Compound
1 | 10% | 5% | 25% | 20% | – | – | CC(CS)C(=O)N[C@@H](Cc1ccc(O)cc1)C(=O)O (stereo partly drawn) [Compound R-3, N-(3-mercapto-2-methylpropanoyl)-L-tyrosine]
2 | 30% | – | 30% | 25% | not active | – | O=C(N[C@@H](Cc1ccc(O)cc1)C(=O)O)C(CS)Cc1ccc2c(c1)OCO2 (stereo partly drawn) [Compound R-2, N-[3-mercapto-2-(3,4-methylenedioxyphenyl)methyl-propionyl)-(S)-tyrosine]
3 | – | – | 25% | 10% | not active | not active | CC(CS)C(=O)N[C@@H](Cc1c[nH]c2ccccc12)C(=O)O (stereo partly drawn) [Compound R-4, N-(3-mercapto-2-methylpropanoyl)-L-triptophan]
4 | 5% | – | 25% | 20% | not active | – | O=C(N[C@@H](Cc1ccccc1)C(=O)O)C(CS)Cc1ccc2c(c1)OCO2 (stereo partly drawn) [Compound R-1, N-[3-mercapto-2-(3,4-methylenedioxyphenyl)methyl-propionyl]-(S)-phenylalanine]
